Measured values reported in ChEMBL document CHEMBL1201862, “PubChem BioAssay data set” (2004).
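Dose response: 5 concentrations. Exposure: 48 h. Format: 96-well plates. Endpoint: linear interpolation; highest concentration if not reached. Abbreviation: GI50, concentration required for 50% inhibition of growth.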 Activity calls are given as the source filed them. Rule as the data show it: active = GI50 up to about 1.1 µM and inactive = higher.

What was measured:
Assay in all cases: NCI-60 cell line screen, 48 h
786-0 = test system: 786-0
A498 = test system: A498
ACHN = test system: ACHN
CAKI-1 = test system: CAKI-1
DU-145 = test system: DU-145
HCT-15 = test system: HCT-15
HT-29 = test system: HT-29
MCF7 = test system: MCF7
MDA-MB-435 = test system: MDA-MB-435
NCI/ADR-RES = test system: NCI/ADR-RES
OVCAR-3 = test system: OVCAR-3
OVCAR-5 = test system: OVCAR-5
PC-3 = test system: PC-3
SF-295 = test system: SF-295
SK-MEL-5 = test system: SK-MEL-5
SNB-75 = test system: SNB-75
SW-620 = test system: SW-620
T47D = test system: T47D
UO-31 = test system: UO-31

Compound | GI50 (786-0) | GI50 (A498) | GI50 (ACHN) | GI50 (CAKI-1) | GI50 (DU-145) | GI50 (HCT-15) | GI50 (HT-29) | GI50 (MCF7) | GI50 (MDA-MB-435) | GI50 (NCI/ADR-RES) | GI50 (OVCAR-3) | GI50 (OVCAR-5) | GI50 (PC-3) | GI50 (SF-295) | GI50 (SK-MEL-5) | GI50 (SNB-75) | GI50 (SW-620) | GI50 (T47D) | GI50 (UO-31)
O=C(/C=C/c1cc(O)c(O)cc1O)OCCc1ccccc1 | 5.05 µM (inactive) | 21.2 µM (inactive) | 12.2 µM (inactive) | 24.5 µM (inactive) | > 52.6 µM (inactive) | 22.2 µM | 18.4 µM (inactive) | 15 µM (inactive) | 20.2 µM (inactive) | 27.2 µM (inactive) | 10.3 µM (inactive) | > 41.9 µM (inactive) | 17.3 µM (inactive) | 29.4 µM (inactive) | 18.7 µM (inactive) | 56 µM (inactive) | 5.19 µM (inactive) | 4.4 µM (inactive) | 10.3 µM (inactive)
N#Cc1cc(-c2nc3ccc(F)cc3s2)ccc1N | > 100 µM (inactive) | > 100 µM (inactive) | > 100 µM (inactive) | > 100 µM (inactive) | > 100 µM (inactive) | 87.7 µM | > 100 µM (inactive) | 18 µM (inactive) | 17.7 µM (inactive) | > 100 µM (inactive) | > 100 µM (inactive) | > 100 µM (inactive) | > 100 µM (inactive) | > 100 µM (inactive) | > 100 µM (inactive) | 14.7 µM (inactive) | > 100 µM (inactive) | > 100 µM (inactive) | > 100 µM (inactive)
O=C(NNC(=O)c1csc(NC(=S)NC2CCCCC2)n1)c1ccccc1 | 12.7 µM (inactive) | 38 µM (inactive) | 11.4 µM (inactive) | 18.6 µM (inactive) | 18.7 µM (inactive) | 2.74 µM | 7.23 µM (inactive) | 2.06 µM (inactive) | 15.6 µM (inactive) | 4.85 µM (inactive) | 4.33 µM (inactive) | 11.9 µM (inactive) | 7.82 µM (inactive) | 11 µM (inactive) | 6.71 µM (inactive) | 83.9 µM (inactive) | 10.3 µM (inactive) | 3.37 µM (inactive) | 13.7 µM (inactive)
CC(=O)N/N=C1\NC(=O)C[C@H]2[C@@H]3CC=C4C[C@@H](OC(C)=O)CC[C@]4(C)[C@H]3CC[C@]12C | 16 µM (inactive) | 18.7 µM (inactive) | 21.5 µM (inactive) | > 100 µM (inactive) | 74 µM (inactive) | 38.2 µM | 31.4 µM (inactive) | 46.9 µM (inactive) | 4.06 µM (inactive) | 39.4 µM (inactive) | > 100 µM (inactive) | > 100 µM (inactive) | 29.9 µM (inactive) | 14.1 µM (inactive) | 50.8 µM (inactive) | 20.9 µM (inactive) | 23.7 µM (inactive) | > 100 µM (inactive) | 40.6 µM (inactive)
N#Cc1c(N2CCCC2)nsc1NCc1ccccc1 | > 100 µM (inactive) | > 100 µM (inactive) | 91 µM (inactive) | > 100 µM (inactive) | > 100 µM (inactive) | > 100 µM | > 100 µM (inactive) | > 100 µM (inactive) | > 100 µM (inactive) | > 100 µM (inactive) | > 100 µM (inactive) | > 100 µM (inactive) | > 100 µM (inactive) | > 100 µM (inactive) | > 100 µM (inactive) | > 100 µM (inactive) | > 100 µM (inactive) | 74.6 µM (inactive) | 4.14 µM (inactive)
C=C1CC(C)(COc2cc(=O)oc3ccccc23)OC1=O (stereo not given) | 2.84 µM (inactive) | 2.91 µM (inactive) | 5.21 µM (inactive) | 2.22 µM (inactive) | 6.97 µM (inactive) | 3.43 µM | 3.82 µM (inactive) | 1.74 µM (inactive) | 5.53 µM (inactive) | 3.35 µM (inactive) | 3.96 µM (inactive) | 7.78 µM (inactive) | 4.11 µM (inactive) | 12.7 µM (inactive) | 5.33 µM (inactive) | 8.07 µM (inactive) | 2.57 µM (inactive) | 2.48 µM (inactive) | 12.1 µM (inactive)
O=C(O)CN1CCN2CCCCCCCCN(CC1)CCN(CC(=O)O)CC2 | > 100 µM (inactive) | > 100 µM (inactive) | > 100 µM (inactive) | > 100 µM (inactive) | > 100 µM (inactive) | > 100 µM | 43.5 µM (inactive) | > 100 µM (inactive) | > 100 µM (inactive) | > 100 µM (inactive) | > 100 µM (inactive) | > 100 µM (inactive) | > 100 µM (inactive) | > 100 µM (inactive) | > 100 µM (inactive) | 21.9 µM (inactive) | > 100 µM (inactive) | > 100 µM (inactive) | > 100 µM (inactive)
c1ccc(CN2CCCN3CCN(CCCN(Cc4ccccc4)CC3)CC2)cc1 | 42.2 µM (inactive) | 58.5 µM (inactive) | > 100 µM (inactive) | > 100 µM (inactive) | 68.5 µM (inactive) | > 100 µM | 35.9 µM (inactive) | 38.3 µM (inactive) | 32.7 µM (inactive) | > 100 µM (inactive) | 27.2 µM (inactive) | > 100 µM (inactive) | 30.5 µM (inactive) | 87.7 µM (inactive) | 19.3 µM (inactive) | 32 µM (inactive) | > 100 µM (inactive) | 35.7 µM (inactive) | > 100 µM (inactive)
O=[N+]([O-])c1ccc(C2=NOC(c3ccccc3)N2C23CC4CC(CC(C4)C2)C3)cc1 (stereo not given) | 17.6 µM (inactive) | > 100 µM (inactive) | 20.1 µM (inactive) | 1.36 µM (inactive) | 40 µM (inactive) | 29.8 µM | 21.3 µM (inactive) | 24.8 µM (inactive) | 21.8 µM (inactive) | 35.8 µM (inactive) | 23.5 µM (inactive) | 14.4 µM (inactive) | 20.5 µM (inactive) | 26.8 µM (inactive) | 22.2 µM (inactive) | 21.9 µM (inactive) | 35.3 µM (inactive) | 25.7 µM (inactive) | 9.23 µM (inactive)
CCOC(=O)c1cc(=O)c2cccc3c2n1CCS3 | > 100 µM (inactive) | 83.8 µM (inactive) | > 100 µM (inactive) | > 100 µM (inactive) | > 100 µM (inactive) | > 100 µM | > 100 µM (inactive) | > 100 µM (inactive) | > 100 µM (inactive) | > 100 µM (inactive) | > 100 µM (inactive) | > 100 µM (inactive) | > 100 µM (inactive) | > 100 µM (inactive) | > 100 µM (inactive) | > 100 µM (inactive) | > 100 µM (inactive) | > 100 µM (inactive) | 77.8 µM (inactive)
CCCCCCCCCCCCCCCCOP(=O)([O-])OCC[N+](C)(C)C1CC(C)(C)N(O)C(C)(C)C1 | > 100 µM (inactive) | > 100 µM (inactive) | > 100 µM (inactive) | > 100 µM (inactive) | > 100 µM (inactive) | > 100 µM | > 100 µM (inactive) | > 100 µM (inactive) | > 100 µM (inactive) | > 100 µM (inactive) | > 100 µM (inactive) | > 100 µM (inactive) | > 100 µM (inactive) | > 100 µM (inactive) | > 100 µM (inactive) | > 100 µM (inactive) | > 100 µM (inactive) | > 100 µM (inactive) | > 100 µM (inactive)
Clc1cc(OCc2nn3c(Cc4ccccc4)nnc3s2)ccc1OCc1nn2c(Cc3ccccc3)nnc2s1 | 19.5 µM (inactive) | 29.1 µM (inactive) | 24.2 µM (inactive) | 21.1 µM (inactive) | 29.6 µM (inactive) | 47.8 µM | 79.1 µM (inactive) | 50.4 µM (inactive) | 51.6 µM (inactive) | 59.3 µM (inactive) | 29.9 µM (inactive) | 51.5 µM (inactive) | 48.4 µM (inactive) | 19.5 µM (inactive) | 25.4 µM (inactive) | 15.6 µM (inactive) | 79.8 µM (inactive) | 20.9 µM (inactive) | 39.4 µM (inactive)
CC(Oc1ccccc1Cl)C(=O)NN1C(=O)CC(=O)N(c2ccc(Cl)cc2)C1=S (stereo not given) | 40.8 µM (inactive) | 20.4 µM (inactive) | 37.4 µM (inactive) | 40.7 µM (inactive) | 34.6 µM (inactive) | 36.6 µM | 47.8 µM (inactive) | 29.6 µM (inactive) | 61 µM (inactive) | 36.1 µM (inactive) | 38.4 µM (inactive) | 75.3 µM (inactive) | 38.1 µM (inactive) | 44.1 µM (inactive) | 36 µM (inactive) | 47.5 µM (inactive) | 52 µM (inactive) | 34.6 µM (inactive) | 37.1 µM (inactive)
COc1ccc(OC)c(NC(=O)c2c(Cl)c(Cl)c(Cl)c(Cl)c2-c2nc3ccccc3[nH]2)c1 | > 100 µM (inactive) | > 100 µM (inactive) | > 100 µM (inactive) | > 100 µM (inactive) | > 100 µM (inactive) | > 100 µM | > 100 µM (inactive) | 76.7 µM (inactive) | > 100 µM (inactive) | > 100 µM (inactive) | > 100 µM (inactive) | > 100 µM (inactive) | > 100 µM (inactive) | > 100 µM (inactive) | > 100 µM (inactive) | > 100 µM (inactive) | > 100 µM (inactive) | > 100 µM (inactive) | > 100 µM (inactive)
CCOP(=O)(O)C(Nc1ccc(/N=N/c2ccccc2)cc1)c1cccc(C(Nc2ccc(/N=N/c3ccccc3)cc2)P(=O)(O)OCC)c1 (stereo not given) | 60 µM (inactive) | 23 µM (inactive) | 45.9 µM (inactive) | 66.1 µM (inactive) | 80.9 µM (inactive) | 24.8 µM | 20.1 µM (inactive) | 35.2 µM (inactive) | 58.7 µM (inactive) | 76.9 µM (inactive) | 55.3 µM (inactive) | 40.6 µM (inactive) | 23.9 µM (inactive) | 24 µM (inactive) | 45.1 µM (inactive) | 44.4 µM (inactive) | 35.2 µM (inactive) | 18.4 µM (inactive) | 30 µM (inactive)
